How the values were obtained:
[1] = tested on: 3T3 L1 adipocytes; assay: Triglyceride release from 3T3 L1 adipocytes (peptide stimulation assay); type: cell-based, murine; conditions: 4 hours, 2 assays combined
Experimental: • 2.1 The objective of this study was to determine the effects of a-MSH and desacetyl a-MSH on leptin and triglyceride production in murine 3T3 L1 adipocytes. • 2.2 Pre-adipocytes were seeded in 6-well plates and 2 days post confluence (Day 2) were differentiated with […] indomethacin+5 ug/mL insulin (described in previous documents). • 2.3 On Day 13 adipocytes were stimulated with 4 doses each of a-MSH and desacetyl a-MSH (or no peptide added) for 4 hours. • 2.4 Medium was removed from the wells and leptin and triglyceride levels measured. • 2.5 Intracytoplasmic lipid accumulation was measured by staining with Oil red O.
• 4.1 Medium=a-MEM+0.5% BSA (100 mL a-MEM+0.5 g BSA) • 4.2 Doses of a-MSH and da-MSH (stocks in −80° C. freezer=1 ug/ul), using MW of a-MSH. • 1 M=1665 g/L=1665 mg/mL • 1 mM=1.665 mg/mL • 1 uM=1.665 ug/mL • 1.665 ug/mL=3.3 ug/2 mL in each well • 1/10 dilution of 1 ug/ul (stock)=0.1 ug/ul. 33 ul=3.3 ug. • Prepare 1/10 dilution of freezer stock (1 ug/ul) to make 0.1 ug/ul, using a-MEM+0.5% BSA as diluent. • Make 3 serial dilutions of 1/10 to add 33 ul to each well in 6-well plate. • Doses are in triplicate wells, so require 3×33=99 ul for each dose.
• 5.1 Assay is performed on Day 14 after initiation of cell differentiation. […]

[2] = tested on: neonatal rats; assay: Body and organ weights of neonatal rats after subcutaneous injection; type: in vivo, rat; conditions: s.c. 0.3 μg/g body weight/day; for body weight change (growth) over 14 days vs PBS: first 14 days of life
Experimental: Adult female Wistar rats were housed in plastic cages and kept on a 12-h dark/light cycle. Animals received tap water and rat pellets ad libitum and were mated with males of the same strain. Each litter of new-born Wistar rats was culled to 9 pups per mother.
PBS or freshly prepared peptide solutions made up freshly in PBS containing 0.1% BSA were injected subcutaneously once per day in a volume of 40 μl for 14 days. Animals were injected on day 14 and 1 h later they were euthanised using sodium pentobarbital.
Rats were weighed at birth and then every 2 days prior to injection of peptides. Body weights were recorded on day 14 before injection and again when they were euthanised. The following organs were dissected and weighed: brain, heart, kidney, liver, lung, spleen.
Liner relationships between organ weights and body weights was tested using regression analysis of the organ weights measured against final body weight on day 14. There were significant linear relationships between organ weights and body weights for the following tissues: brain, spleen, heart, kidney and liver. There was no significant regression between lung weight and body weight. For those organs where their weight was linearly correlated to body weight, treatment effects on organ weight changes were analysed using ANCOVA with body weight as the co-variate.
Differences in body weight were analysed using a General Linear Model with repeated measures. Significance was assumed at the P<0.05 level.

[3] = tested on: hypothalamic proteins; assay: Hypothalamic proteome analysis after i.c.v. injection; type: in vivo, rat
Experimental: Alpha-MSH and desacetyl-α-MSH both couple melanocortin receptors to either adenylyl cyclase or calcium-signalling pathways in vitro. To characterise the signal transduction pathways engaged by α-MSH and desacetyl-α-MSH in vivo, rats received an intracerebroventricular (i.c.v.) injection of either phosphate buffered saline (PBS), α-MSH or desacetyl-α-MSH. Three hours later, food intake was measured and hypothalamic tissues were collected for 2D gel electrophoresis-based proteome analysis.
Adult male Wistar rats (50-60 days old, 230-260 g at the beginning of the experiment) were maintained in individual cages under controlled temperature (23° C.) and reverse lighting (1000-2200 lights off). Standard laboratory chow (NZ Stockfeed Ltd) and tap water were available ad libitum during the adaptation phase. During this time animals were handled daily to minimize the effects of stress on food intake during experiments. Body weight was measured daily before, and one week after cannulation. Any animal showing signs of illness, such as weight loss, poor grooming, or decreased activity, was removed from the study. All animal procedures undertaken were approved by the Animal Ethics Committee of the University of Auckland.
After 7 days of adaptation, animals were subject to cannula placement surgery under 3% halothane/O2 anaesthesia. A permanent lateral ventricle infusion cannula (6-mm 21 gauge) was placed on top of the dura at 7.5 mm anterior from stereotaxic zero, 1.5 mm to the right of the mid-sagittal line, and secured to the skull with dental cement. Animals were allowed at least 7 days to recover from surgery before injections.
Rats were fasted overnight before the day of experiment.
Under 3% halothane/O2 anaethesia rats were infused icv through a 12-mm 27-gauge needle, connected to 20-cm length tubing attached to a syringe. Infusions were performed in the early dark phase between 1000 and 1130 hr using motor driven infusion pumps at a rate of 1.0 μl/min over 10 min. Movement of a 0.2 ml air-space introduced between the 0.9% saline solution filling the PE10 tubing-syringe system and the test solution served as an indicator of a successful infusion. At the end of each experiment animals were euthanised by pentobarbital overdose, and cannula placement was confirmed by visual inspection of the cannula tip location within the brain ventricular system.
Only one of these proteins was common to α-MSH and desacetyl-α-MSH. A combination of Reverse-phase HPLC followed by Edman protein sequencing, and peptide mass fingerprinting technique using MALDI-TOF mass spectrometry were used to identify the proteins of interest. The proteomic data provide a snap-shot of the protein expression patterns in the hypothalamus 3 hours post i.c.v. administration of the melanocortin peptides.

[4] = hypothalamus, 3 h after i.c.v. injection, rats

Cu/Zn superoxide dismutase (p1347), effect compared to control [3, 4]: 1.4 fold decrease
Protein disulfide isomerase (p261), effect compared to control [3, 4]: 1.4 fold decrease
gamma-enolase (p1438), effect compared to control [3, 4]: 1.7 fold decrease
glyceraldehyde-3-phosphate-dehydrogenase (p1210), effect compared to control [3, 4]: 1.4 fold decrease
phosphatidylethanolamine binding protein (p1267), effect compared to control [3, 4]: 2.5 fold decrease
triosephosphate isomerase (p1521), effect compared to control [3, 4]: 1.4 fold decrease
Sequence: SYSMEHFRWGKPV [desacetyl-α-MSH, non-acetylated form of α-MSH, obtained from Bachem]
TRIGLYCERIDE RESPONSE, MEAN ([1]; 100 nM): 111.4 % OF CONTROL
TRIGLYCERIDE RESPONSE, MEAN ([1]; 1000 nM): 110.0 % OF CONTROL
brain weight vs PBS ([2]; 14 days): significantly decreased brain weight
kidney weight vs PBS ([2]; 14 days): no significant effect on kidney weight
spleen weight vs PBS ([2]; 14 days): significantly increased spleen weight
body weight change (growth) over 14 days vs PBS [2]: grew significantly slower
body weight change (growth) over 14 days vs PBS ([2]; listed as Desacetyl-α-MSH): significantly slowed body weight change
body weight catch up compared to PBS treated rats ([2]; from day 12): appeared to catch up on body weight from day 12
number of hypothalamic proteins with expression significantly different from PBS ([3]; 3 hours post i.c.v., p<0.05): 20

Source: US20090118194A1, “Measurement of melanocortin peptides and uses thereof” (Auckland UniServices Limited, priority 2002, published 2009)
